Results as given in patent US10206937B2, “Boronic acid derivatives and therapeutic uses thereof” (Qpex Biopharma, Inc., priority 2014, dated 2019).

System: strains of Enterobacteriaceae producing various carbapenemases (class A, D and B; 104 strains)
Assay: Antibiotics potentiation by Compound 27 (MIC; meropenem, doripenem, ertapenem, cefepime)
Assay type: cell-based
Settings: + 27 = with Compound 27 at fixed 4 μg/ml

COc1ccc2c(c1C(=O)O)OB(O)C(Sc1nnc(N)s1)C2 (centres unmarked) [E + 27]
MIC (strain CF1012 Citrobacter freundii (KPC-2)): X (MIC of less than 1 μg/mL) | MIC (strain CF1021 Citrobacter freundii (CMY-type; VIM-1)): X (MIC of less than 1 μg/mL) | MIC (strain CF1022 Citrobacter freundii (SHV-12(2be), TEM-OSBL(2b); IMP-8)): X (MIC of less than 1 μg/mL) | MIC (strain CF1023 Citrobacter freundii (SHV-12(2be), TEM-OSBL(2b); CTX-M-3; CMY-34; NDM-1)): X (MIC of less than 1 μg/mL) | MIC (strain CL1080 Enterobacter cloacae (IMP-1)): Y (MIC of 1 μg/mL to 10 μg/mL) | MIC (strain EA1019 Enterobacter aerogenes (SHV-5, VIM-1)): X (MIC of less than 1 μg/mL) | MIC (strain EC1007 Escherichia coli (KPC-3)): X (MIC of less than 1 μg/mL) | MIC (strain EC1061 Escherichia coli (NDM-1, CMY-6)): X (MIC of less than 1 μg/mL) | MIC (strain EC1062 Escherichia coli (OXA-48, CTX-M-15)): X (MIC of less than 1 μg/mL) | MIC (strain EC1064 Escherichia coli (NDM-1, CMY-6, CTX-M-15)): Z (MIC of greater than 10 μg/mL) | MIC (strain EC1065 Escherichia coli (IMP-1)): X (MIC of less than 1 μg/mL) | MIC (strain EC1068 Escherichia coli (VIM-1)): X (MIC of less than 1 μg/mL) | MIC (strain EC1069 Escherichia coli (CTX-M-27; NDM-1)): X (MIC of less than 1 μg/mL) | MIC (strain EC1070 Escherichia coli (TEM-OSBL(2b); CMY-42; NDM-5)): X (MIC of less than 1 μg/mL) | MIC (strain EC1072 Escherichia coli (CTX-M-3; NDM-1)): X (MIC of less than 1 μg/mL) | MIC (strain ECL1004 Enterobacter cloacae (NMC-A)): X (MIC of less than 1 μg/mL) | MIC (strain ECL1026 Enterobacter cloacae (KPC-2, TEM-1)): X (MIC of less than 1 μg/mL) | MIC (strain ECL1036 Enterobacter cloacae (KPC-3, TEM-1)): X (MIC of less than 1 μg/mL) | MIC (strain ECL1045 Enterobacter cloacae (VIM-1)): Y (MIC of 1 μg/mL to 10 μg/mL) | MIC (strain ECL1055 Enterobacter cloacae (KPC-3, TEM)): X (MIC of less than 1 μg/mL) | MIC (strain ECL1057 Enterobacter cloacae (NDM-1, TEM-1, CTX-M-15)): Z (MIC of greater than 10 μg/mL) | MIC (strain ECL1058 Enterobacter cloacae (KPC-3, SHV-11, TEM-1)): Y (MIC of 1 μg/mL to 10 μg/mL) | MIC (strain ECL1059 Enterobacter cloacae (KPC-3, SHV-12, TEM-1)): X (MIC of less than 1 μg/mL) | MIC (strain ECL1061 Enterobacter cloacae (KPC-3, Hyper AmpC expression)): Y (MIC of 1 μg/mL to 10 μg/mL) | MIC (strain ECL1082 Enterobacter cloacae (VIM-1)): X (MIC of less than 1 μg/mL) | MIC (strain ECL1084 Enterobacter cloacae (CTX-M-15; ACT-16; NDM-1)): X (MIC of less than 1 μg/mL) | MIC (strain ECL1085 Enterobacter cloacae (SHV-31(2be), TEM-1(2b); CTX-M-15; NDM-1)): X (MIC of less than 1 μg/mL) | MIC (strain ECL1086 Enterobacter cloacae (VIM-31, OXA-48(c))): Y (MIC of 1 μg/mL to 10 μg/mL) | MIC (strain ECL1087 Enterobacter cloacae (VIM-1)): X (MIC of less than 1 μg/mL) | MIC (strain ECL1088 Enterobacter cloacae (TEM-1(2b); CTX-M-14; ACT-type; VIM-1)): X (MIC of less than 1 μg/mL) | MIC (strain ECL1089 Enterobacter cloacae (ACT-type; IMP-1)): Z (MIC of greater than 10 μg/mL) | MIC (strain ECL1090 Enterobacter cloacae (TEM-1(2b); CTX-M-22; ACT-type; IMP-8)): X (MIC of less than 1 μg/mL) | MIC (strain ECL1091 Enterobacter cloacae (VIM-1)): X (MIC of less than 1 μg/mL) | MIC (strain ECL1092 Enterobacter cloacae (TEM-OSBL(2b); ACT-32; VIM-1)): X (MIC of less than 1 μg/mL) | MIC (strain ECL1093 Enterobacter cloacae (TEM-OSBL(2b); ACT-32; VIM-1)): X (MIC of less than 1 μg/mL) | MIC (strain ECL1094 Enterobacter cloacae (VIM-1)): Y (MIC of 1 μg/mL to 10 μg/mL) | MIC (strain ECL1096 Enterobacter cloacae (CMY-4, VIM-4, OXA-48(c))): X (MIC of less than 1 μg/mL) | MIC (strain ECL1097 Enterobacter cloacae (SHV-31(2be), TEM-OSBL(2b); CTX-M-15; ACT-31; NDM-1)): X (MIC of less than 1 μg/mL) | MIC (strain ECL1098 Enterobacter cloacae (TEM-OSBL(2b); DHA-1; ACT-16; NDM-1)): X (MIC of less than 1 μg/mL) | MIC (strain KP1001 Klebsiella pneumoniae (KPC TEM SHV)): Z (MIC of greater than 10 μg/mL) | MIC (strain KP1002 Klebsiella pneumoniae (KPC TEM SHV)): X (MIC of less than 1 μg/mL) | MIC (strain KP1003 Klebsiella pneumoniae (KPC TEM SHV)): X (MIC of less than 1 μg/mL) | MIC (strain KP1004 Klebsiella pneumoniae (KPC-2, TEM-1, SHV-11)): X (MIC of less than 1 μg/mL) | MIC (strain KP1008 Klebsiella pneumoniae (KPC-2)): X (MIC of less than 1 μg/mL) | MIC (strain KP1014 Klebsiella pneumoniae (VIM-1, TEM, SHV)): X (MIC of less than 1 μg/mL) | MIC (strain KP1054 Klebsiella pneumoniae (VIM-1, SHV-11)): X (MIC of less than 1 μg/mL) | MIC (strain KP1059 Klebsiella pneumoniae (VIM-1, SHV-11)): Y (MIC of 1 μg/mL to 10 μg/mL) | MIC (strain KP1061 Klebsiella pneumoniae (KPC-3, SHV-11, TEM-1)): X (MIC of less than 1 μg/mL) | MIC (strain KP1064 Klebsiella pneumoniae (KPC-2, SHV-11, TEM-1)): Z (MIC of greater than 10 μg/mL) | MIC (strain KP1065 Klebsiella pneumoniae (VIM-1, SHV-11)): X (MIC of less than 1 μg/mL) | MIC (strain KP1070 Klebsiella pneumoniae (KPC-2, SHV-11, TEM-1)): X (MIC of less than 1 μg/mL) | MIC (strain KP1074 Klebsiella pneumoniae (KPC-3, SHV-11, TEM)): Z (MIC of greater than 10 μg/mL) | MIC (strain KP1081 Klebsiella pneumoniae (NDM-1, TEM-1, SHV-11, CMY-6, CTX-M-15)): Y (MIC of 1 μg/mL to 10 μg/mL) | MIC (strain KP1082 Klebsiella pneumoniae (KPC-2, SHV-1)): X (MIC of less than 1 μg/mL) | MIC (strain KP1083 Klebsiella pneumoniae (KPC-3, SHV-1, TEM-1)): X (MIC of less than 1 μg/mL) | MIC (strain KP1084 Klebsiella pneumoniae (KPC-3, SHV-11, TEM-1)): Z (MIC of greater than 10 μg/mL) | MIC (strain KP1086 Klebsiella pneumoniae (OXA-48, CTX-M-15, TEM, SHV)): Z (MIC of greater than 10 μg/mL) | MIC (strain KP1087 Klebsiella pneumoniae (KPC-2, CTX-M-15, SHV-11, TEM-1)): Y (MIC of 1 μg/mL to 10 μg/mL) | MIC (strain KP1088 Klebsiella pneumoniae (KPC-3, SHV-11, TEM-1)): X (MIC of less than 1 μg/mL) | MIC (strain KP1089 Klebsiella pneumonias (OXA-181, CTX-M-15, TEM, SHV)): X (MIC of less than 1 μg/mL) | MIC (strain KP1095 Klebsiella pneumoniae (KPC-2 TEM-1 SHV-1)): X (MIC of less than 1 μg/mL) | MIC (strain KP1096 Klebsiella pneumoniae (KPC-2 TEM-181 SHV-11)): X (MIC of less than 1 μg/mL) | MIC (strain KP1097 Klebsiella pneumonias (IMP-1)): X (MIC of less than 1 μg/mL) | MIC (strain KP1098 Klebsiella pneumoniae (IMP-26)): Y (MIC of 1 μg/mL to 10 μg/mL) | MIC (strain KP1104 Klebsiella pneumoniae (KPC TEM)): X (MIC of less than 1 μg/mL) | MIC (strain KP1105 Klebsiella pneumoniae (KPC TEM SHV)): X (MIC of less than 1 μg/mL) | MIC (strain KP1159 Klebsiella pneumoniae (SHV-1(2b); CTX-M-15; IMP-4)): Y (MIC of 1 μg/mL to 10 μg/mL) | MIC (strain KP1160 Klebsiella pneumoniae (SHV-28(2be); CTX-M-15; IMP-26)): Y (MIC of 1 μg/mL to 10 μg/mL) | MIC (strain KP1161 Klebsiella pneumoniae (NDM-1)): X (MIC of less than 1 μg/mL) | MIC (strain KP1164 Klebsiella pneumoniae (SHV-12(2be); VIM-1)): X (MIC of less than 1 μg/mL) | MIC (strain KP1165 Klebsiella pneumoniae (SHV-11(2b); CTX-M-15; VIM-27)): Z (MIC of greater than 10 μg/mL) | MIC (strain KP1166 Klebsiella pneumoniae (SHV-5(2be); VIM-26)): Y (MIC of 1 μg/mL to 10 μg/mL) | MIC (strain KP1167 Klebsiella pneumoniae (SHV-12(2be); VIM-1)): X (MIC of less than 1 μg/mL) | MIC (strain KP1169 Klebsiella pneumoniae (SHV-11(2b); VIM-1)): X (MIC of less than 1 μg/mL) | MIC (strain KP1170 Klebsiella pneumoniae (SHV-11(2b); CTX-M-15; NDM-1)): X (MIC of less than 1 μg/mL) | MIC (strain KP1172 Klebsiella pneumoniae (SHV-31(2be); DHA-1; VIM-1)): X (MIC of less than 1 μg/mL) | MIC (strain KP1173 Klebsiella pneumoniae (TEM-33(2br); CTX-M-15; IMP-1)): X (MIC of less than 1 μg/mL) | MIC (strain KP1174 Klebsiella pneumoniae (CTX-M-14; IMP-1)): X (MIC of less than 1 μg/mL) | MIC (strain KP1175 Klebsiella pneumoniae (SHV-OSBL(2b); VIM-1)): X (MIC of less than 1 μg/mL) | MIC (strain KP1177 Klebsiella pneumoniae (SHV-OSBL(2b), TEM-OSBL(2b); CTX-M-15; NDM-1)): X (MIC of less than 1 μg/mL) | MIC (strain KP1178 Klebsiella pneumoniae (SHV-OSBL(2b;) TEM-OSBL(2b); CTX-M-15; NDM-1)): X (MIC of less than 1 μg/mL) | MIC (strain KP1179 Klebsiella pneumoniae (SHV-12(2be), TEM-OSBL(2b); CTX-M-15; NDM-7)): X (MIC of less than 1 μg/mL) | MIC (strain KP1180 Klebsiella pneumoniae (SHV-OSBL(2b), TEM-OSBL(2b); CTX-M-15; DHA-1; IMP-26)): X (MIC of less than 1 μg/mL) | MIC (strain KP1181 Klebsiella pneumoniae (SHV-OSBL(2b); CTX-M-15; IMP-26)): X (MIC of less than 1 μg/mL) | MIC (strain KP1183 Klebsiella pneumoniae (SHV-OSBL(2b), TEM-OSBL(2b); CTX-M-15; NDM-1)): X (MIC of less than 1 μg/mL) | MIC (strain KP1184 Klebsiella pneumoniae (SHV-OSBL(2b); IMP-1)): X (MIC of less than 1 μg/mL) | MIC (strain KP1185 Klebsiella pneumoniae (SHV-OSBL(2b), TEM-OSBL(2b); IMP-4)): Y (MIC of 1 μg/mL to 10 μg/mL) | MIC (strain KP1186 Klebsiella pneumoniae (CTX-M-15; NDM-1)): X (MIC of less than 1 μg/mL) | MIC (strain KP1187 Klebsiella pneumoniae (SHV-55(2be), TEM-OSBL(2b); CTX-M-15; NDM-1)): X (MIC of less than 1 μg/mL) | MIC (strain KP1188 Klebsiella pneumoniae (SHV-OSBL(2b); CTX-M-15; NDM-1)): Y (MIC of 1 μg/mL to 10 μg/mL) | MIC (strain KP1189 Klebsiella pneumoniae (TEM-OSBL(2b); CTX-M-15; CTX-M-27; NDM-1)): X (MIC of less than 1 μg/mL) | MIC (strain KPM1123 Klebsiella pneumoniae (KPC-2 TEM SHV)): X (MIC of less than 1 μg/mL) | MIC (strain KPM1202 Klebsiella pneumoniae (KPC SHV TEM)): X (MIC of less than 1 μg/mL) | MIC (strain KPM1203 Klebsiella pneumoniae (KPC SHV TEM)): X (MIC of less than 1 μg/mL) | MIC (strain KPM1344 Klebsiella pneumoniae (VIM-1)): X (MIC of less than 1 μg/mL) | MIC (strain KPM1345 Klebsiella pneumoniae (VIM-1 SHV)): X (MIC of less than 1 μg/mL) | MIC (strain KPM1347 Klebsiella pneumoniae (NDM-1 SHV CTX-M-15)): X (MIC of less than 1 μg/mL) | MIC (strain KX1017 Klebsiella oxytoca (KPC-2, OXA-2, SHV-30)): X (MIC of less than 1 μg/mL) | MIC (strain KX1018 Klebsiella oxytoca (KPC-2, SHV-40, OXY-1)): X (MIC of less than 1 μg/mL) | MIC (strain KX1019 Klebsiella oxytoca (KPC-2, OXA-2)): X (MIC of less than 1 μg/mL) | MIC (strain PM1024 Proteus mirabilis (TEM-1(2b); CMY-16; VIM-1)): X (MIC of less than 1 μg/mL) | MIC (strain PM1026 Proteus mirabilis (DHA-1; IMP-26)): X (MIC of less than 1 μg/mL) | MIC (strain PM1027 Proteus mirabilis (VIM-5)): X (MIC of less than 1 μg/mL) | MIC (strain SM1023 Serratia marcescens (VIM-4)): Y (MIC of 1 μg/mL to 10 μg/mL)
